Columns and labels:
porcine α-amylase = molecular target: T1, porcine α-amylase (Sus scrofa, UniProt P00690); assay: Porcine α-amylase inhibition assay; format: biochemical
T1 sequence (P00690 16-511): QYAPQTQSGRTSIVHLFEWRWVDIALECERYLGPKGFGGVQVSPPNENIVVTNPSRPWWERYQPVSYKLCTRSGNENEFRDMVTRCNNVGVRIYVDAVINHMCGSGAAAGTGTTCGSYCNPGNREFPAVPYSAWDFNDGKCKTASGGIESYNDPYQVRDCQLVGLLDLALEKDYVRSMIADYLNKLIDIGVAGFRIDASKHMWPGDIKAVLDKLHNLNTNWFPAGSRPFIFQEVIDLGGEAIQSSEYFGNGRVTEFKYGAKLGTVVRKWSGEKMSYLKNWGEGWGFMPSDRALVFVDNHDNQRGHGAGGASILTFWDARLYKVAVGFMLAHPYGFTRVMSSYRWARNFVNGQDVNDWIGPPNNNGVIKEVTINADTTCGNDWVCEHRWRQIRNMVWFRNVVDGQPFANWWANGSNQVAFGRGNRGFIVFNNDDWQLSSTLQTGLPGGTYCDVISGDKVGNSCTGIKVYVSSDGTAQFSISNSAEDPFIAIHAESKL
Method: In this study, the inhibition activity of porcine α-amylase was evaluated following a previously reported method. […] The combination was incubated at 25 °C for a specific period, following which starch solution mixed with sodium phosphate (0.02 M pH 6.9) and sodium chloride (6 mM) was added and incubated at 25 °C for 10 min. After the incubation, 1 mL of dinitrosalicylic acid (color reagent) was included in the mixture at 100 °C for 10 min to stop the reaction, followed by chilling to 25 °C. The absorbance of the resulting combination was measured at 540 nm, after adding 1 mL of deionized water. The percentage of inhibition activity of porcine α-amylase was calculated using Equation (1).

mushroom tyrosinase = assay: Tyrosinase inhibition assay; format: biochemical; details: for tyrosinase inhibition: highest concentration (5 mg/mL); for Tyrosinase inhibition activity IC50: mean ± SD, n = 3
Method: To assess the inhibition of tyrosinase activity, a previously reported method was followed in this study. […] The mixture was incubated at 37 °C for 10 min, and then 1 mL of 50 units/mL mushroom tyrosinase liquefied in 0.2 M, pH 6.8 phosphate buffer was added. The resulting mixture was incubated for an additional 10 min, and the absorbance was measured at 475 nm. Ethanol (50%) was used as a blank, while 1 mL of deionized water was a control. The percentage of tyrosinase inhibition activity was calculated using Equation (1).

[1] = DPPH free radical-scavenging assay; details: wet basis; mean ± SD, n = 3
Method: The percentage inhibition of these radical compounds was determined using Equation (1):% Inhibition DPPH^• = (Abs. control − Abs. sample)/(Abs. control) × 100(1)
The absorbance of the DPPH^• mixture without the test sample was considered as the Abs. control test. Absorbance was measured with a Varian CARY 50 Scan UV–VIS Spectrophotometer equipped with a Cary 50 Microplate Reader (Varian, Inc., Walnut Creek, CA, USA).

acetylcholinesterase = acetylcholinesterase (Homo sapiens, UniProt P22303); assay: Acetylcholinesterase inhibition assay; format: biochemical
Sequence of acetylcholinesterase (P22303 32-614, species assumed): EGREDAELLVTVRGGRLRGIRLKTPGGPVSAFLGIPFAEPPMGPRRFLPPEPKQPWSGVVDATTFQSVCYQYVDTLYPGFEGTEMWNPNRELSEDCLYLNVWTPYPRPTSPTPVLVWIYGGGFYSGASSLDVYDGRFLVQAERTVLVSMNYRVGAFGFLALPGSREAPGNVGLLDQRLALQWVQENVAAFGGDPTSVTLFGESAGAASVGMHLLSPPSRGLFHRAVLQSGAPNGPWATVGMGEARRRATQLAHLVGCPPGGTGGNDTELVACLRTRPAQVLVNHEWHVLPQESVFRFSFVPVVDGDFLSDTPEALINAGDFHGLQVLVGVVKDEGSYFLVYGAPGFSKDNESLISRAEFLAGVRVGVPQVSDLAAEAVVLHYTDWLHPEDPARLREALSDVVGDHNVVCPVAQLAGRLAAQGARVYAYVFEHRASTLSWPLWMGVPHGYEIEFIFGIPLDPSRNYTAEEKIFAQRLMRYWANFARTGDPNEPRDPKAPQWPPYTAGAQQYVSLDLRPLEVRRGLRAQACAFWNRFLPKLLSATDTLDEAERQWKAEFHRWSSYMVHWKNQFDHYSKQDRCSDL
Method: The mixture was then incubated at room temperature for 15 min. After this, 475 µL of 3 mM DTNB solution and 75 µL of […] 15 mM were added to the mixture and incubated for an additional 30 min at room temperature. Finally, the absorbance of the mixture was measured at 405 nm, and the percentage of inhibition activity of acetylcholinesterase was calculated by Equation (1), as explained earlier.

[2] = ABTS free radical-scavenging assay; details: for ABTS maximum antioxidant activity: at 5 mg/mL
Method: The ABTS^• radicals are employed as a model system to assess the antioxidant activity of the compounds [33]. The percentage inhibition of the ABTS^• radicals by the test compounds was calculated using Equation 1, as described earlier.

[3] = system: bovine serum albumin (BSA); assay: Protein oxidation produced by AAPH (SDS-PAGE); details: AAPH 20 mM, 30 min
Method: The mixture was then incubated in a shaking water bath for 30 min at 37 °C. A control sample not including AAPH was also prepared. After incubation, the mixture was loaded onto an SDS-PAGE 10% gel under reduction conditions for 5 min at 100 °C. Images of the stained gel were captured using a Chemi-Doc MV gel documentation system (Bio-Rad, Hercules, CA, USA). The intensity of the bands was determined to quantify the aggregate of protein damage for all bands employing Image Lab 4.1 Software version 6.1.0 (Bio-Rad, Hercules, CA, USA). […] The use of SDS-PAGE and staining methods provides a visual representation of the extent of protein damage and allows for quantification of the results.

[4] = Total antioxidant capacity (TAC) phosphomolybdate assay; details: for maximum total antioxidant capacity value (absorbance at 695 nm): at 5 mg/mL; for Total Antioxidant Capacity IC50: wet basis, mean ± SD, n = 3
Method: Briefly, a reagent containing sodium phosphate (28 mM), sulfuric acid (0.6 M), and ammonium molybdate (4 mM) was added to 0.1 mL of the test samples, and the mixture was incubated at 95 °C for 90 min. After cooling, the absorbance of the mixture was measured at 695 nm. A higher absorbance value indicates a greater antioxidant capacity of the tested samples.

plasmid pBR322 DNA = assay: Free radical-induced (H2O2 + UV) DNA damage assay; format: biochemical
Method: Once the reaction was completed, the tested samples were electrophoresed through a polysaccharide agarose 0.8% gel, and we stained the electrophoresed gel with ethidium bromide. The electrophoresed gel was analyzed, and we captured photographs of the electrophoresed gel using Image Lab 4.1 software, version 6.1.0. (Bio-Rad, Hercules, CA, USA).

[5] = Nitric oxide radical (NO) scavenging, Griess reaction; details: for NO-scavenging maximum inhibition: at 5 mg/mL; for Nitric Oxide scavenging IC50: wet basis, mean ± SD, n = 3
Method: The reaction mixture contained 2 mL of sodium nitroprusside (10 mM), 0.5 mL of saline phosphate buffer, and 0.5 mL of the test samples. The mixtures were incubated for 150 min at 25 °C. After incubation, 0.5 mL of the reaction mixture was combined with 1 mL of sulfanilic acid reagent (0.33% in 20% glacial acetic acid). Following a 5 min wait, 1 mL of naphthyl ethylene diamine dihydrochloride (0.1%) was added. The mixtures were left for 30 min at room temperature, and the absorbance was measured at 540 nm. The percentage of nitrites was calculated using Equation 1, as described earlier.

[6] = Ferric-reducing/antioxidant power (FRAP) assay; details: for maximum FRAP value: at 5 mg/mL; for FRAP antioxidant inhibition activity IC50: wet basis, mean ± SD, n = 3
Method: The FRAP reagent was prepared by mixing TPTZ (10 mM mixture) in 40 mM HCl, FeCl3 (20 mM), and acetate buffer (pH 3.6, 0.3 M) in a ratio of 1:1:10 (v/v/v). Next, 1 mL of the test sample was mixed with 2 mL of freshly prepared FRAP reagent, and the solutions were incubated for 30 min at 37 °C. The absorbance of the resulting mixture was measured at 593 nm. Deionized water was employed as a blank, and FeSO4 was used to establish the calibration curve. The FRAP values were expressed as µmol of Fe (II).

[7] = system: Staphylococcus aureus (ATCC 25923); assay: Agar-well diffusion susceptibility test; format: cell-based; details: S. aureus
Method: (§1) The pre-cultures of these pathogens were prepared through separate cultivation on Muller–Hinton broth at 37 °C for 24 h. […] After cultivation at 37 °C for 24 h, the developed inhibition zones (Halo zones) around wells indicated positive results. Amoxicillin (AX-25) and ampicillin (AM-10) were included as reference antibacterial drugs, while clotrimazole (CLT) and amphotericin-B (AmB) were applied as reference antifungal drugs.

[8] = system: Pseudomonas aeruginosa (ATCC 27853); assay: Agar-well diffusion susceptibility test; format: cell-based; details: P. aeruginosa
Method: as §1

[9] = system: Escherichia coli (ATCC 25922); assay: Agar-well diffusion susceptibility test; format: cell-based; details: E. coli
Method: as §1

[10] = system: Streptococcus mutans (ATCC 25175); assay: Agar-well diffusion susceptibility test; format: cell-based; details: S. mutans
Method: as §1

[11] = system: Salmonella typhimurium (ATCC 14028); assay: Agar-well diffusion susceptibility test; format: cell-based; details: S. typhimurium
Method: as §1

[12] = system: Candida albicans (ATCC 10231); assay: Agar-well diffusion susceptibility test; format: cell-based; details: C. albicans; Control 2 for yeast, 10 mg/disc
Method: as §1

[13] = highest concentration tested (5 mg/mL)

## C[C@H]1O[C@H](O[C@H]2[C@H](O)[C@@H](O)[C@@H](O[C@H]3[C@H](O)[C@@H](O)C(O)O[C@@H]3CO)O[C@@H]2CO)[C@H](O)[C@@H](O)[C@@H]1N[C@H]1C=C(CO)[C@@H](O)[C@H](O)[C@H]1O (some centres unmarked) [Acarbose, acarbose]
Porcine α-amylase; [13]
  inhibition at 5000 µg/mL: 99.12 ± 0.1%

## O=c1cc(CO)occ1O [Kojic Acid, kojic acid]
Mushroom tyrosinase
  tyrosinase inhibition: 99.88 ± 0.11%

## C[C@@H]1O[C@@H](OC[C@H]2O[C@@H](Oc3c(-c4ccc(O)c(O)c4)oc4cc(O)cc(O)c4c3=O)[C@H](O)[C@@H](O)[C@@H]2O)[C@H](O)[C@H](O)[C@H]1O [Rutin, rutin]
Porcine α-amylase
  IC50: 142 µM
Porcine α-amylase; [13]
  inhibition at 5000 µg/mL: 91.51 ± 0.51%
Mushroom tyrosinase
  tyrosinase inhibition: 55.00 ± 0.23%
  Tyrosinase inhibition activity IC50: 494.40 ± 27.86 µg/mL
[1]
  DPPH antioxidant inhibition activity IC50: 417.80 ± 5.78 µg/mL
acetylcholinesterase
  IC50: 1490 µM
acetylcholinesterase; highest concentration tested (5 mg/mL), read-out: AChE activity inhibition
  inhibition at 5000 µg/mL: 15.92 ± 0.13%
[2]
  ABTS maximum antioxidant activity: 92.69 ± 0.32%
[2]; wet basis, mean ± SD, n = 3
  ABTS antioxidant inhibition activity IC50: 6.50 ± 0.08 µg/mL
[3]
  BSA damage inhibition activity IC50: 3.68 ± 0.35 µg/mL
[4]
  maximum total antioxidant capacity value (absorbance at 695 nm): 1.57 ± 0.01
  Total Antioxidant Capacity IC50: 17,600 ± 41.64 µg/mL
Plasmid pBR322 DNA
  DNA damage inhibition activity IC50: 15.00 ± 0.22 µg/mL
[5]
  NO-scavenging maximum inhibition: 79.01 ± 0.07%
  Nitric Oxide scavenging IC50: 270.10 ± 3.51 µg/mL
[6]
  maximum FRAP value: 10,644.00 ± 86.02 µmol of Fe (II)
  FRAP antioxidant inhibition activity IC50: 391.00 ± 7.46 µg/mL

## O=C1O[C@H]([C@@H](O)CO)C(O)=C1O [VC, vitamin C]
Porcine α-amylase; [13]
  α-amylase activity inhibition: 93.18 ± 0.18%
Porcine α-amylase; mean ± SD, n = 3
  Porcine α-amylase inhibition activity IC50: 97.62 ± 8.14 µg/mL
Mushroom tyrosinase
  tyrosinase inhibition: 98.72 ± 0.15%
  Tyrosinase inhibition activity IC50: 1881.00 ± 48.56 µg/mL
[1]
  DPPH antioxidant inhibition activity IC50: 881.70 ± 13.38 µg/mL
[2]
  ABTS maximum antioxidant activity: 90.13 ± 0.04%
[3]
  BSA damage inhibition activity IC50: 25.32 ± 1.29 µg/mL
[4]
  maximum total antioxidant capacity value (absorbance at 695 nm): 0.041 ± 0.000
  Total Antioxidant Capacity IC50: 3005.00 ± 72.45 µg/mL
Plasmid pBR322 DNA
  DNA damage inhibition activity IC50: 505.00 ± 21.63 µg/mL
[5]
  NO-scavenging maximum inhibition: 56.55 ± 1.52%
  Nitric Oxide scavenging IC50: 2710.00 ± 13.35 µg/mL
[6]
  maximum FRAP value: 10,233.67 ± 243.72 µmol of Fe (II)
  FRAP antioxidant inhibition activity IC50: 743.60 ± 30.11 µg/mL

## CC1(C)S[C@@H]2[C@H](NC(=O)[C@H](N)c3ccc(O)cc3)C(=O)N2[C@H]1C(=O)O [amoxicillin]
[7]; Control 1, 25 mg/disc
  inhibition-zone diameter: −ve
[8]; Control 1, 25 mg/disc
  inhibition-zone diameter: 28.00 ± 2.76 mm
[9]; Control 1, 25 mg/disc
  inhibition-zone diameter: 25.00 ± 2.40 mm
[10]; Control 1, 25 mg/disc
  inhibition-zone diameter: 37.00 ± 2.80 mm
[11]; Control 1, 25 mg/disc
  inhibition-zone diameter: 30.00 ± 1.30 mm

## C[C@@H]1[C@H](O)[C@@H](C)/C=C/C=C/C=C/C=C/C=C/C=C/C=C/[C@H](O[C@@H]2O[C@H](C)[C@@H](O)[C@H](N)[C@@H]2O)C[C@@H]2O[C@](O)(C[C@@H](O)C[C@@H](O)[C@H](O)CC[C@@H](O)C[C@@H](O)CC(=O)O[C@H]1C)C[C@H](O)[C@H]2C(=O)O [amphotericin-B]
[12]
  inhibition-zone diameter: 25.50 ± 2.30 mm

## CC1(C)S[C@@H]2[C@H](NC(=O)[C@H](N)c3ccccc3)C(=O)N2[C@H]1C(=O)O [ampicillin]
[7]; Control 2, 10 mg/disc
  inhibition-zone diameter: −ve
[8]; Control 2, 10 mg/disc
  inhibition-zone diameter: 13.20 ± 0.68 mm
[9]; Control 2, 10 mg/disc
  inhibition-zone diameter: −ve
[10]; Control 2, 10 mg/disc
  inhibition-zone diameter: 18.00 ± 1.48 mm
[11]; Control 2, 10 mg/disc
  inhibition-zone diameter: 10.00 ± 0.80 mm

Reference: paper PMC10255713, “Palm Fruit (Phoenix dactylifera L.) Pollen Extract Inhibits Cancer Cell and Enzyme Activities and DNA and Protein Damage” (Nutrients, 2023)
